Data taken from patent US20090019557A1, “FGF2-RELATED METHODS FOR DIAGNOSING AND TREATING DEPRESSION” (priority 2005, published 2009).

Experiments:
rats [1] = experiment: Forced swim test (FST) after microinjection; format: in vivo; conditions: versus controls
Description: (§1) This is indicative of less depression-like behavior in FGF2 animals.
(§2) Again, this is an index of less depression-like behavior. This is also in the same direction as the FGF2 data, consistent with the fact that both FGF2 and NCAM interact with the FGF receptor.
(§3) These observations are nevertheless consistent with the conclusions drawn from the microinjection studies above.

rats [2] = experiment: Elevated plus maze (EPM) after acute microinjection; format: in vivo; conditions: versus controls
Description: as §1, §2, §3

[3] = system: GAP-43, Rgs4, trkb, CCK, SST, Vgf, NCAM expression; experiment: Hippocampal (dentate gyrus) gene expression in adult rats after early postnatal FGF2; format: in vivo; conditions: FGF2 20 ng/g s.c. the day after birth
Procedure: (§4) Methods. Sprague-Dawley rats were injected with either vehicle or FGF2 (20 ng/g, s.c.) the day after birth and sacrificed after Morris water maze testing as adults. We assessed changes in gene expression using both a candidate approach and a gene discovery approach with laser-capture microdissection of the dentate gyrus followed by microarray analyses.
Results. […] Several genes associated with neural plasticity were also found altered in the adult rats, as shown by histochemical and RNA expression assays. For example, expression of GAP-43, Rgs4, trkb, CCK, SST, and Vgf was increased, while expression of NCAM was decreased.

rats [4] = experiment: Elevated plus-maze (EPM) and light-dark (LD) anxiety tests after chronic FGF2; format: in vivo; conditions: 5 ng/g i.p. every 48 hours for 3 weeks
Procedure: Anxiety disorders have a high comorbidity with other neuropsychiatric disorders including Major Depression (MD). […] Rats were placed into “high anxiety” (LR) or “low anxiety” (HR) groups based on their behavior in a variety of motor and behavioral tests. Both groups of animals were administered either FGF2 (5 ng/g) or vehicle by intraperitoneal injection every 48 hours for 3 weeks. One day after the last FGF2 injection, all animals were tested in the elevated plus-maze (EPM) and light-dark (LD) anxiety test.
The apparatus for the EPM test is constructed of black Plexiglass with […] (70 cm from the floor, 45 cm long, and 12 cm wide). Illumination is provided by a 40-watt desk lamp facing a wall and placed behind one of the closed arms. The scientists put the animal inside the system. Animals that are less anxious spend more time in the open arms whereas animals that are more anxious spend less time in the open arms.
The LD test is conducted in a 30×60×30-cm Plexiglas shuttle box with a translucent cover. Each box is divided into two equal-sized compartments by a wall with a 12 cm-wide open door. One compartment is painted white and brightly illuminated, and the other is painted black with very dim light. The time each rat spends in each compartment is monitored by rows of five photocells located 2.5 cm above the grid floor of each compartment. […]

[5] = system: FGFR2 and FGFR3 exon IIIc:IIIb splice variants; experiment: Real time RT-PCR of exon IIIc:IIIb splice variant ratio in frontal cortex, chronic unpredictable stress; format: in vivo, rats; conditions: 5 ng/g i.p. every 48 hours for three weeks
Procedure: Animals. Twenty-four male Sprague-Dawley rats weighing 220-250 g were ordered from Charles River (Wilmington, Mass.) and remained undisturbed for one week to acclimatize to housing conditions. The animals were housed in pairs on a 12 h light-dark cycle (lights on 6:00 A.M.) with food and water available ad libitum. All experiments were conducted in accordance with the NIH Guide for the Care and Use of Animals and the University Committee on the Use and Care of Animals.
FGF2 injection treatments and chronic unpredictable stress (CUS) conditions. […]
Total RNA extraction. […] Using the Bioanalyzer's concentration readings, the samples were normalized to 25 ng/μL of total RNA per subject and stored at −80° C.
cDNA synthesis. cDNA was synthesized using the iScript cDNA Synthesis Kit (Bio-Rad, Hercules, Calif.). […] The double-stranded cDNA solutions were then analyzed for quality and concentration using Invitrogen's Quant-iT PicoGreen dsDNA kit. […] The fluorescently labeled samples were analyzed with a 1420 Victor^2 Multilabel Counter (EG&G Wallac, Wellesley, Mass.) using the basic Fluorescein protocol. […]
Real time RT-PCR primer design. […] Exon sequences were analyzed using NCBI's nucleotide and protein BLAST and were matched with their corresponding protein products within the receptor structures (FIG. 11). […]

Sprague-Dawley rats = experiment: Morris water maze learning and memory test in adults after early postnatal FGF2; format: in vivo; conditions: 20 ng/g s.c. the day after birth, tested as adults
Procedure: as §4

Row | Substance | climbing in FST (rats [1]) | immobility in FST (rats [1]) | swimming in FST (rats [1]) | time in the center quadrant of EPM (rats [2]) | time in the closed arms of EPM (rats [2]) | time in the open arms of EPM (rats [2]) | expression of CCK [3] | expression of NCAM [3] | expression of Rgs4 [3] | expression of SST [3] | expression of Vgf [3] | expression of trkb [3] | expression of GAP-43 ([3]; histochemical and RNA expression assays) | anxiety versus vehicle animals (rats [4]; tested one day after last injection) | anxiety-reducing effect in innately more anxious (LR) rats (rats [4]; LR versus HR rats) | effect on magnitude of IIIc:IIIb ratio changes caused by stress [5] | effect on exon IIIc:IIIb ratio ([5]; NS or S group, P>0.1) | time on average to find a hidden platform in Morris Water maze test (Sprague-Dawley rats) [s] | performance in learning and memory tests (Sprague-Dawley rats; versus vehicle)
1 | HFKDPKRLY [FGF system peptide inhibitor] | significantly less climbing | more immobility | less swimming | significantly more time | less time | equal time | – | – | – | – | – | – | – | – | – | – | – | – | –
2 | FGF2: human recombinant FGF2 (Sigma); ligand of the FGF receptor | – | less immobility | more swimming | – | significantly more time | less time | increased | decreased | increased | increased | increased | increased | increased | less anxious | clearly more pronounced | nor did it significantly affect | did not alter the IIIc:IIIb ratio significantly | 20 | significantly better
3 | EVYVVAENQQGKSKA [NCAM] | – | less immobility | – | significantly less time | more time (although not significantly more time) | less time | – | – | – | – | – | – | – | – | – | – | – | – | –
